Where two headings read alike, the source gives them in different places.
Tests used:
Assay type in all cases: biochemical
[1] = molecular target: T1, Recombinant human MMP-1 enzyme (Homo sapiens, UniProt P03956); assay: In vitro inhibition of MMP-1 activity; conditions: for in vitro MMP-1 inhibition activity, in words: summary of Tables 2 and 4
T1 construct: purchased
T1 sequence (P03956 100-469): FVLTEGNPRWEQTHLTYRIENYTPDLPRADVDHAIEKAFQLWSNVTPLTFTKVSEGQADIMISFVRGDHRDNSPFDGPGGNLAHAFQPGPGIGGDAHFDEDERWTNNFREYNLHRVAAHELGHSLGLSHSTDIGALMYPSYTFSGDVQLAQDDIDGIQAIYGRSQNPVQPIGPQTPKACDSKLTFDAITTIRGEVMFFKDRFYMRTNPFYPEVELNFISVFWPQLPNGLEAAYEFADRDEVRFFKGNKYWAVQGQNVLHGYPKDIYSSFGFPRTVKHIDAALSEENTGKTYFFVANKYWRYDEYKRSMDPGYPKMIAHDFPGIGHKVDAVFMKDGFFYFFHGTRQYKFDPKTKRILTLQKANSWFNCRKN
From the text: In vitro specific inhibition of MMP-2 and MMP-9 activity was estimated with assay kits from Biomol®. Recombinant human MMP-1 enzyme may be obtained from any commercially available source. […] Therefore, a lower value indicates a stronger MMP inhibition.
In vitro specific inhibition of MMP-2 and MMP-9 activity is estimated with assay kits from Biomol®. Recombinant human MMP-1 enzyme is obtained from any commercially available source.

[2] = molecular target: T2, MMP-2 (Homo sapiens, UniProt P08253); assay: In vitro specific inhibition of MMP-2 activity (Biomol assay kit); conditions: for IC50: selected standards, Table 4, read-out: inhibition expressed as IC50 against MMP-2 (converted); for in vitro MMP-2 inhibition activity, in words: summary of Tables 2 and 4
T2 construct: purchased Biomol
Experimental: (§1) Several extracts and sub-fractions from the leaves of Menyanthes trifoliata were prepared by liquid-liquid partitioning and fractionation on a Sephadex LH20 gel filtration column (see example 1) and evaluated for specific anti-MMP activity. In vitro specific inhibition of MMP-2 and MMP-9 activity was estimated with assay kits from Biomol®. Recombinant human MMP-1 enzyme may be obtained from any commercially available source. […] Therefore, a lower value indicates a stronger MMP inhibition.
(§2) To further understand which agents may be contributing to the MMP-1, 2, 9 inhibition activity, standards of the different phenol acids, flavonoids and coumarins, identified in Menyanthes trifoliata extracts, were tested for their in vitro inhibition of MMPs-1, 2 and 9. In vitro specific inhibition of MMP-2 and MMP-9 activity is estimated with assay kits from Biomol®. Recombinant human MMP-1 enzyme is obtained from any commercially available source.

[3] = molecular target: T3, MMP-9 (Homo sapiens, UniProt P14780); assay: In vitro specific inhibition of MMP-9 activity (Biomol assay kit); conditions: for IC50: selected standards, Table 4, read-out: inhibition expressed as IC50 against MMP-9 (converted); for in vitro MMP-9 inhibition activity, in words: summary of Tables 2 and 4
T3 construct: purchased Biomol
Experimental: as §1, §2

[4] = Peroxynitrite scavenging (ABEL peroxynitrite antioxidant test kit with Pholasin); conditions: summary of Table 6
Experimental: Assay was performed with the ABEL® peroxynitrite antioxidant test kit with Pholasin®. Standards of different phenolic acids and flavonoids, identified in […] trifoliata extracts, were tested for their in vitro peroxynitrite scavenging activity. Assay was performed with the ABEL® peroxynitrite antioxidant test kit with Pholasin®.

[5] = selected standards, Table 4, read-out: inhibition expressed as IC50 against MMP-1 (converted)

T3 sequence (P14780 107-444 limits assumed): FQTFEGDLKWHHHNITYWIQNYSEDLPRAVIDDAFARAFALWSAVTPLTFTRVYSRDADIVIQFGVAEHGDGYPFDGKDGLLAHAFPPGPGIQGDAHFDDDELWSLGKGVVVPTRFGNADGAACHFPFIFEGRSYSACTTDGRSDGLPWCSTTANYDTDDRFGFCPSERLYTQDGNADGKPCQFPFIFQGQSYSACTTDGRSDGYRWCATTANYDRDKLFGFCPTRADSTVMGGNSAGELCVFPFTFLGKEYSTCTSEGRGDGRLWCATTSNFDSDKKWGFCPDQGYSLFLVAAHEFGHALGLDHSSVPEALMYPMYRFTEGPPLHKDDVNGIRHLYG
T2 sequence (P08253 110-446 limits assumed): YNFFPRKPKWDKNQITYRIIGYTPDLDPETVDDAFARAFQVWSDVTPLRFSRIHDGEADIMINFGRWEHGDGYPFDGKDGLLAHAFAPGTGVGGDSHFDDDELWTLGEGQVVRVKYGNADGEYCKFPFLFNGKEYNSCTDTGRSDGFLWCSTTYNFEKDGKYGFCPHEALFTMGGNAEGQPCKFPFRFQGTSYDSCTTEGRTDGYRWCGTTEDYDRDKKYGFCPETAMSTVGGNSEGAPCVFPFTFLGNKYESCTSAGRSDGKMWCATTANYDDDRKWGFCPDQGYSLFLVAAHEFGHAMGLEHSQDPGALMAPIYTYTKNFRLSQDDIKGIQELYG

Row | SMILES | IC50 [1, 5] [µM] | in vitro MMP-1 inhibition activity, in words [1] | IC50 [2] [µM] | in vitro MMP-2 inhibition activity, in words [2] | IC50 [3] [µM] | in vitro MMP-9 inhibition activity, in words [3] | peroxynitrite scavenging activity, in words [4] | IC50 [1] [µM]
1 | COc1cc2ccc(=O)oc2cc1OC [Scoparone] | 72.7 | strong | 87.3 | strong | 48.5 | strong |  | 
2 | O=c1c(O)c(-c2ccc(O)c(O)c2)oc2cc(O)cc(O)c12 [Quercetin] |  | strong | 33.1 | strong | 62.9 | strong | strong | 
3 | O=c1c(O[C@@H]2O[C@H](CO)[C@@H](O)[C@H](O)[C@H]2O)c(-c2ccc(O)c(O)c2)oc2cc(O)cc(O)c12 [Iso-quercitrin] |  |  | 21.5 |  | 198 |  |  | 49.5
4 | C[C@@H]1O[C@@H](OC[C@H]2O[C@@H](Oc3c(-c4ccc(O)c(O)c4)oc4cc(O)cc(O)c4c3=O)[C@H](O)[C@@H](O)[C@@H]2O)[C@H](O)[C@H](O)[C@H]1O [Rutin] | 65.5 |  | 45.9 |  | 70.4 |  |  | 
5 | COc1cc(/C=C/C(=O)O)ccc1O [ferulic acid] | 144 | strong | 113 | strong | 103 | strong | strong | 
6 | O=C(O)c1ccc(O)cc1 [p-hydroxy-benzoic acid] |  | not |  |  |  | not |  | 
7 | COc1cc2ccc(=O)oc2cc1O [Scopoletin] | 78.1 | strong | 93.7 | strong | 130 | strong |  | 
8 | O=C(O)c1ccc(O)c(O)c1 [Protocatechuic acid] |  |  |  |  |  |  | strong | 
